According to patent US7109175B1, “Specific steady-state R-type CA2+ channel blockers and use thereof” (Universite de Sherbrooke, priority 2000, dated 2006):
“Also recorded” adds a separate entry of the source.

Legend:
R-type Ca^2+ channel [1] = assay: Cell-attached single channel recording of R-type Ca2+ channel, human aortic VSM cell line; assay type: cell-based; conditions: for R-type channel opening (probability, duration, frequency) / R-type single channel current: 10^−7M extra-patch pipette application; for R-type single channel amplitude and probability of opening: nifedipine 10^−6M present
Protocol: Also, for the R-type Ca^2+ channel current, the effect of the compounds are tested on the R-type Ca^2+ channel amplitude, voltage dependency and probability of opening, by using the cell-attached patch clamp technique (Bkaily 1994, supra; 1996, supra) and intra and extra patch pipette application of the drug.
In another series of experiments (n=7), using the cell attached patch clamp technique (Bkaily G. 1994, supra; Bkaily G. et al., 1996, supra), the effect of 10^−7M of MV8608 on the R-type Ca^2+ channel in human aortic vascular smooth muscle cell line was tested. […] In a second series of experiments (n=3), the patch pipette solution was free of MV8608 and after recording the single channel activities at different voltages, MV8608 (final concentration of 10^−7M) was applied to the extra-patch pipette solution containing 140 mM KCl (where the rest of the cell is bathing). This experiment was designed to verify whether MV8608 crossed the cell membrane and if so, whether its effect from the internal side of the channel under the patch is the same as that when applied at the outer side thereof. […] Such a pattern of increase of probability of opening and the open duration accompanied with the sporadic decrease of the single channel current amplitude has never been observed when MV8608 was applied at the outer side of the single channel under the patch pipette.
In another series of experiments (n=7), the effect of 10^−7M of MV8612 was tested on the R-type Ca^2+ in human aortic VSM cells, using the single channel cell attached recording technique and intra and extra patch pipette application of drugs.
In one series of experiments (n=3), MV8612 (total concentration, 10^−7M) was only applied to the patch pipette. […] As for MV8608, in one series of experiments (n=4), MV8612 (10^−7M) was only applied to the extra-patch pipette, in order to verify if the compound penetrates into the cytosol and if so, how it affects the R-type Ca^2+ channel activity.

R-type Ca^2+ channel [2] = assay: Fura-2 [Ca]i, human fetal heart cells; assay type: cell-based; conditions: 10^−9M, KCl 30 mM, PAF 10^−9M
Source text: These two methods are used with single cells of different types as described above.
(§1) In another series of experiments we tested the effect of MV8608 (10^−9M) on R-type Ca^2+ channels stimulation-induced sustained increase of total intracellular Ca^2+ by sustained depolarization (FIGS. 15 to 19), by PAF (10^−9M) (FIGS. 16 to 19 and 21 to 22), by ET-1 (10^−9M) (FIGS. 16 and 19) and bradykinin (BK, 10^−6M) (FIGS. 20 and 21), in embryonic chick heart cells (FIGS. 15, 16, 19 and 20), 19-week-old human fetal heart cells (FIGS. 15, 17, 18 and 20), rabbit aortic vascular smooth muscle (VSM) cells (FIGS. 20 and 21), human aortic VSM cell-line (FIG. 23) and freshly isolated (FIG. 22) as well as in freshly isolated aortic endothelial cells (FIG. 22).

[3] = tested on: PAF-induced arterial vasodilatation and venconstriction; assay: Double-perfused mesenteric bed of the rat
Source text: The inhibitory properties of MV8608 are specific for PAF as the response to ACh (arterial) and AngII (venous) are unaffected by the pregnane-containing moiety.

[4] = tested on: contraction of rat uterus induced by BK; conditions: Calixto et al. 1987; cited from earlier work
T-type Ca^2+ current = assay: Whole-cell voltage clamp, T-type Ca2+ current in heart cells; assay type: cell-based
Protocol: Single cells of different types in culture were prepared from biopsies of human, chick and rabbit. Known and accepted methods for the isolation of fast Na^+ current, T, L and R-type Ca^2+ channels as well as delayed outward K^+ current were used (Bkaily 1994, supra).
The compounds to be tested are added to the appropriate extracellular solution after recording a stable ionic current or normal steady-state level of […]. The effect of different concentrations of compounds are tested on the different type of current and [Ca]i of the different cell types. The effect of each concentration of the compounds in function of the time of exposure are then determined. Once the steady-state effect is reached, the second concentration is added, etc.
In another series of experiments (n=7), the effect of different concentrations of MV8608 were tested on the T-type Ca^2+ current (ICa) using the whole-cell voltage clamp technique and classical experimental conditions described elsewhere by the inventors (Bkaily G. et al., 1991, supra; 1992, supra; 1993, supra). […] As it can be seen in that figure, the inset effect of MV8608 in T-type ICa is immediate.

R-type Ca^2+ channel [5] = assay: Fura-2 [Ca]i, freshly isolated human aortic endothelial cells; assay type: cell-based; conditions: 10^−9M
Source text: This sustained increase of Ca^2+ induced by depolarization of the cell membrane or hormones such as PAF, ET-1 and bradykinin is due to the increase of Ca^2+ influx through the R-type Ca^2+ channels at the sarcolemmal membrane and/or the nuclear membrane (Bkaily G., 1994, supra; 1996, supra; 1997a–d, supra). Using Ca^2+ fluorescence probes Fura-2 or Fluo-3 and 2 and three-dimension Ca^2+ imaging techniques (Bkaily G., 1994, supra; 1996, supra; 1997a–d, supra), the effect of hormones and drugs could be easily tested. These two methods are used with single cells of different types as described above.
as §1

tail-flick = assay: Tail-flick in mice; assay type: in vivo; conditions: i.p.
anaesthetized guinea pig = assay: Anaesthetized guinea pig, PAF bronchoconstriction and hypotension; assay type: in vivo
Source text: (§2) On the other hand, in vivo administered PAF, induced a marked hypotension in the anaesthetized rat and guinea pig.

anaesthetized rat = assay: Anaesthetized rat, blood pressure and PAF hypotension; assay type: in vivo; conditions: anaesthetized rat
Source text: as §2

Row | Compound | R-type channel opening (probability, duration, frequency) (R-type Ca^2+ channel [1]) | R-type single channel current (R-type Ca^2+ channel [1]) | R-type single channel conductance (R-type Ca^2+ channel [1]; 10^−7M in the patch pipette) | R-type single channel amplitude and probability of opening (R-type Ca^2+ channel [1]; 10^−7M in the patch pipette) | sustained increase of [Ca]i (R-type Ca^2+ channel [2]) | response to ACh (arterial) and AngII (venous) [3] | PAF-induced responses (arterial vasodilatation, venconstriction) ([3]; 1 μM in FIG. 24) | inhibition of BK-induced contraction of rat uterus [4] | overall effect on T-type ICa (T-type Ca^2+ current; 10^−9M and 10^−7M, heart cells) | effect on T-type ICa amplitude (T-type Ca^2+ current; 10^−9M to 10^−7M, n=7) | basal [Ca]i (R-type Ca^2+ channel [5]) | ID50 TAIL-FLICK (tail-flick) | intrinsic hypotensive effect (anaesthetized guinea pig; guinea pig) | bronchoconstrictive responses to PAF (anaesthetized guinea pig; pretreatment) | hypotensive effects of PAF (anaesthetized guinea pig; pretreatment) | hypotensive effect of PAF after withdrawal of treatment (anaesthetized guinea pig; same animal) | decrease of R-type single Ca2+ channel current amplitude (R-type Ca^2+ channel [1]; 10^−7M via the patch pipette, n=3) | extent of blocking of R-type channel amplitude and probability of opening, comparison (R-type Ca^2+ channel [1]; intra-patch pipette, MV8612 versus MV8608) | hypotensive effect of PAF (anaesthetized rat)
1 | C[C@]12CC[C@H](O)CC1=CC[C@@H]1[C@@H]2CC[C@]2(C)[C@H]3[C@@H]4OC[C@H]3O[C@@H](O)[C@]12O4 [MV8608, (15R, 16R, 20S)-14, 16:15,20:16,21-triepoxi-15,16-seco 14β, 17α-pregn-5-ene-3β, 15-diol] | increased the probability and duration of opening | spontaneous decrease and release of the blockade of the single channel current | without affecting its single channel conductance | decreased the single channel amplitude and probability of opening | blockade | unaffected | concentration-dependent inhibition; also recorded: blocked PAF | selective in its ability to inhibit the contraction of rat uterus induced by BK | very weak depressor; also recorded: relative weak depressing effect | had no effect | decrease of basal sustained increase of [Ca]i |  |  |  |  |  |  |  | 
2 | COC1CC(OC2C(C)OC(O[C@H]3CC[C@@]4(C)C(=CC[C@@H]5[C@@H]4CC[C@]4(C)[C@H]6[C@@H]7OC[C@H]6O[C@@H](O)[C@]54O7)C3)CC2OC)OC(C)C1OC1CC(OC)C(OC2CC(OC)C(OC3OC(C)C(OC(C)=O)C(OC)C3OC(C)=O)C(C)O2)C(C)O1 (stereo partly shown) [MV8612] | rapidly increased the R-type Ca^2+ opening frequence | small decrease in the single channel current |  | significantly decreased |  |  |  |  |  |  |  | no effect | devoid of marked intrinsic effect | abolishes | very significantly reduced; also recorded: abolishes | fully restored | about 75 % of the control value | superior to that of MV8608 | Identical inhibition
